Data published in patent publication US10428080B2, “TBK/IKK inhibitor compounds and uses thereof” (Merck Patent GmbH, priority 2015, dated 2019).
Structures can show the parent of a compound that is named as a salt.

Legend:
[1] = system: phosphorylation of the IRF-3 protein in MDA-MB-468 cells; experiment: pIRF3 immunocytochemistry cell based assay; conditions: Homo sapiens; MDA-MB-468 cells, Poly(I:C) stimulation; read-out: pIRF3 IC50
How it was run: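 MDA-MB-468 cells got compounds (10-point, 3-fold from 10 uM) for 1 h at 37 °C, then 10 ug/ml Poly(I:C) for 2 h. Fixed, permeabilized cells were immunostained for pIRF3 with AlexaFluor488 and counterstained with PI. % phosphorylation was read by laser scanning cytometry, and IC50 curves were fitted.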

IKKε = biological target: T1, IKKε (Homo sapiens, UniProt Q14164); experiment: IKKe Biochemical Assay; conditions: read-out: IKKε IC50
T1 sequence (Q14164 1-716): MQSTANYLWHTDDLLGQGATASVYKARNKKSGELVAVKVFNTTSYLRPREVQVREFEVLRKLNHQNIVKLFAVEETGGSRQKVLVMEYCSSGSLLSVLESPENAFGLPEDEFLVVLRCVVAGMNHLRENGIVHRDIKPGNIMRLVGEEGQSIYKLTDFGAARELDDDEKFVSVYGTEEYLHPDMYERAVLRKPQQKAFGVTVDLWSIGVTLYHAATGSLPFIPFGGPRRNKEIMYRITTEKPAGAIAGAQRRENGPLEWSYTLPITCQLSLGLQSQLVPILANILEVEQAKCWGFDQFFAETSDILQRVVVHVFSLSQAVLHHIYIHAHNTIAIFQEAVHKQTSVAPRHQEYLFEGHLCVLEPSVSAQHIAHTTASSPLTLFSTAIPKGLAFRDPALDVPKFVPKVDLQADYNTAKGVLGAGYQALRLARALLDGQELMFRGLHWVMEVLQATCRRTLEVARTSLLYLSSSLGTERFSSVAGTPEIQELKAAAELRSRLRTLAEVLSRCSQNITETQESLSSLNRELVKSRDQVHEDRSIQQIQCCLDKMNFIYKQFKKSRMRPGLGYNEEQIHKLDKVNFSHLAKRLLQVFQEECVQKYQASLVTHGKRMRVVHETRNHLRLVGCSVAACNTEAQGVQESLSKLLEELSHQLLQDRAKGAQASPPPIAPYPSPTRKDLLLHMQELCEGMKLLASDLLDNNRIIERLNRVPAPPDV
How it was run: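 Recombinant IKKε and substrate were incubated with compound (10-point 1:4 series, top 30 uM final, 1% DMSO) for 90 min at 25° C, then stopped. Substrate-to-product conversion was read by LabChip microfluidic mobility shift; 10 uM staurosporine served as full-inhibition wells.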

TBK1 = biological target: T2, TBK1 (Homo sapiens, UniProt Q9UHD2); experiment: TBK Biochemical Assay; conditions: read-out: TBK1 IC50
T2 sequence (Q9UHD2 1-729): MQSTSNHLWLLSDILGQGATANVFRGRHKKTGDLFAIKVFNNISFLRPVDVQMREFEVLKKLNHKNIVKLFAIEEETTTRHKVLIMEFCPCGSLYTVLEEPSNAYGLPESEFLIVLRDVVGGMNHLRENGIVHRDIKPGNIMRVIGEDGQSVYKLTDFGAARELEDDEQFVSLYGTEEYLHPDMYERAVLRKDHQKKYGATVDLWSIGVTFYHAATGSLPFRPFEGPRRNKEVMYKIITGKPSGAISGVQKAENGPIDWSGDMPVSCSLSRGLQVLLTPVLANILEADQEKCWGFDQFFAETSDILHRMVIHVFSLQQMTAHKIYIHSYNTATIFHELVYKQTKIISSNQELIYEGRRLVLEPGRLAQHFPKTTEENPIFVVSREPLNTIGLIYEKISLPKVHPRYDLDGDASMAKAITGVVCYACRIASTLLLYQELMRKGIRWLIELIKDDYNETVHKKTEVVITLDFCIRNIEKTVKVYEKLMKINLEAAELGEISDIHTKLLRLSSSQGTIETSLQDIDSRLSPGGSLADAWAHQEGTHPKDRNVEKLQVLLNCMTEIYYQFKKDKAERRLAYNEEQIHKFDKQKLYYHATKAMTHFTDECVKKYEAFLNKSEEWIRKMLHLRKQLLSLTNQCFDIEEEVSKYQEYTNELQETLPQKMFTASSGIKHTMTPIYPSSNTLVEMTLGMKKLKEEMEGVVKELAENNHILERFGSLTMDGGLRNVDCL
How it was run: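 TBK1 enzyme and substrate incubated with compounds (10-point 1:4 dilution, top 30 uM final, 1% DMSO) for 90 min at 25° C, then stopped. Substrate/product peaks read by microfluidic mobility-shift (Caliper LabChip); 10 uM staurosporine as full-inhibition control.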

Structure (SMILES) | IC50 [1] [nM] | IC50 (IKKε) [nM] | IC50 (TBK1) [nM]
CN(C)C(=O)c1ccc(-c2cc3nccc(-c4ccc(O[C@@H]5CCCOC5)c(C#N)c4)c3o2)cc1 [Compound 156, 4-(7-{3-Cyano-4-[(R)-(tetrahydro-pyran-3-yl)oxy]-phenyl}-furo[3,2-b]pyridin-2-yl)-N,N-dimethyl-benzamide] | 1000 to 5000 | < 100 | < 100
COc1cc(C(=O)N(C)C)ccc1-c1cc2nccc(-c3ccc(OC4CCNCC4)c(C#N)c3)c2o1 [Compound 158, 4-{7-[3-Cyano-4-(piperidin-4-yloxy)-phenyl]-furo[3,2-b]pyridin-2-yl}-3-methoxy-N,N-dimethyl-benzamide Hydrochloride] | 100 to 1000 | < 100 | 100 to 1000
CN(C)C(=O)c1ccc(-c2cc3nccc(-c4ccc(OC5(C)CCOCC5)c(C#N)c4)c3o2)cc1 [Compound 159, 4-{7-[3-Cyano-4-(4-methyl-tetrahydro-pyran-4-yloxy)-phenyl]-furo[3,2-b]pyridin-2-yl}-N,N-dimethyl-benzamide] | > 5000 | 100 to 1000 | 100 to 1000
CN(C)C(=O)c1ccc(-c2cc3nccc(-c4ccc(OC5CCCOC5)c(C#N)c4)c3o2)cc1 (stereo not drawn) [Compound 160] | 1000 to 5000 | < 100 | 100 to 1000
COc1cc(C(=O)N(C)C)ccc1-c1cc2nccc(-c3cc(C#N)c(OC4CCOCC4)cn3)c2o1 [Compound 161, 4-{7-[4-Cyano-5-(tetrahydro-pyran-4-yloxy)-pyridin-2-yl]-furo[3,2-b]pyridin-2-yl}-3-methoxy-N,N-dimethyl-benzamide] | 1000 to 5000 | 100 to 1000 | 100 to 1000
COc1cc(C(=O)N(C)C)ccc1-c1cc2nccc(-c3ccc(O[C@@H]4CCCNC4)c(C#N)c3)c2o1 [Compound 163, 4-{7-[3-Cyano-4-((R)-piperidin-3-yloxy)-phenyl]-furo[3,2-b]pyridin-2-yl}-3-methoxy-N,N-dimethyl-benzamide] | 100 to 1000 | 100 to 1000 | 100 to 1000
N#Cc1cc(-c2ccnc3cc(-c4ccc(C(=O)O)cc4)oc23)ccc1OC1CCCOC1 (stereo not drawn) [Compound 166] | 100 to 1000 | < 100 | 100 to 1000
COc1ccc(-c2ccnc3cc(-c4ccc(C(=O)N(C)C)cc4)oc23)cc1C#N [Compound 167, 4-[7-(3-Cyano-4-methoxy-phenyl)-furo[3,2-b]pyridin-2-yl]-N,N-dimethyl-benzamide] | 1000 to 5000 | 100 to 1000 | 100 to 1000
CN(C)C(=O)c1ccc(-c2cc3nccc(-c4ccc(OC5CC(CO)(CCl)C5)c(C#N)c4)c3o2)cc1 (stereo not drawn) [Compound 168, 4-{7-[4-(3-Chloromethyl-3-hydroxymethyl-cyclobutoxy)-3-cyano-phenyl]-furo[3,2-b]pyridin-2-yl}-N,N-dimethyl-benzamide] | 100 to 1000 | 100 to 1000 | 100 to 1000
CN(C)C(=O)c1ccc(-c2cc3nccc(-c4ccc(OC5CCOC(C)(C)C5)c(C#N)c4)c3o2)cc1 (stereo not drawn) [Compound 170, 4-{7-[3-Cyano-4-(2,2-dimethyl-tetrahydro-pyran-4-yloxy)-phenyl]-furo[3,2-b]pyridin-2-yl}-N,N-dimethyl-benzamide] | 1000 to 5000 | 100 to 1000 | 100 to 1000
N#Cc1cc(-c2ccnc3cc(-c4ccc(C(=O)NC5CN6CCC5CC6)cc4)oc23)ccc1OC1CCCOC1 (stereo not drawn) [Compound 171] | 100 to 1000 | 100 to 1000 | 100 to 1000
CN(C)C(=O)c1ccc(-c2cc3nccc(-c4ccc(N5CC[C@H](N(C)C)C5)c(C#N)c4)c3o2)cc1 [Compound 173, 4-{7-[3-Cyano-4-((S)-3-dimethylamino-pyrrolidin-1-yl)-phenyl]-furo[3,2-b]pyridin-2-yl}-N,N-dimethyl-benzamide] | 1000 to 5000 | 100 to 1000 | 100 to 1000
CN(C)C(=O)c1ccc(-c2cc3nccc(-c4ccc(OC5CC6(COC6)C5)c(C#N)c4)c3o2)cc1 [Compound 177, 4-{7-[3-Cyano-4-(2-oxa-spiro[3.3]hept-6-yloxy)-phenyl]-furo[3,2-b]pyridin-2-yl}-N,N-dimethyl-benzamide] | 1000 to 5000 | 100 to 1000 | 100 to 1000
CN(C)C(=O)c1ccc(-c2cc3nccc(-c4ccc(N5CCC(N(C)C6CC6)C5)c(C#N)c4)c3o2)cc1 (stereo not drawn) [Compound 179, 4-(7-{3-Cyano-4-[3-(cyclopropyl-methyl-amino)-pyrrolidin-1-yl]-phenyl}-furo[3,2-b]pyridin-2-yl)-N,N-dimethyl-benzamide] | 1000 to 5000 | 100 to 1000 | 100 to 1000
CN(C)C(=O)c1ccc(-c2cc3nccc(-c4ccc(NC5CCOC6(CC6)C5)c(C#N)c4)c3o2)cc1 (stereo not drawn) [Compound 286, 4-[7-[3-cyano-4-([4-oxaspiro[2.5]octan-7-yl]amino)phenyl]furo[3,2-b]pyridin-2-yl]-N,N-dimethylbenzamide] | 1000 to 5000 | 100 to 1000 | 100 to 1000
COc1cc(C(=O)N(C)C)ccc1-c1cc2nccc(-c3ccc(OC4CCOC5(CC5)C4)c(C#N)c3)c2o1 (stereo not drawn) [Compound 290, 4-[7-(3-cyano-4-[4-oxaspiro[2.5]octan-7-yloxy]phenyl)furo[3,2-b]pyridin-2-yl]-3-methoxy-N,N-dimethylbenzamide] | 100 to 1000 | < 100 | < 100
COc1cc(C(=O)N(C)C)ccc1-c1cc2nccc(-c3ccc(C4(N5CCOCC5)CC4)c(C#N)c3)c2o1 [Compound 292, 4-(7-[3-cyano-4-[1-(morpholin-4-yl)cyclopropyl]phenyl]furo[3,2-b]pyridin-2-yl)-3-methoxy-N,N-dimethylbenzamide hydrochloride] | 100 to 1000 | 100 to 1000 | 100 to 1000
CN(C)C(=O)c1cc(F)c(-c2cc3nccc(-c4ccc(NC5CCOCC5)c(C#N)c4)c3o2)c(F)c1 [Compound 295, 4-(7-[3-cyano-4-[(oxan-4-yl)amino]phenyl]furo[3,2-b]pyridin-2-yl)-3,5-difluoro-N,N-dimethylbenzamide hydrochloride] | 1000 to 5000 | < 100 | 100 to 1000
COc1cc(C(=O)N(C)CCO)ccc1-c1cc2ncc(F)c(-c3ccc(NC4CCOCC4)c(C#N)c3)c2o1 [Compound 296, 4-(7-[3-cyano-4-[(oxan-4-yl)amino]phenyl]-6-fluorofuro[3,2-b]pyridin-2-yl)-N-(2-hydroxyethyl)-3-methoxy-N-methylbenzamide] | 100 to 1000 | < 100 | < 100
COc1cc(C(=O)N(C)CCO)ccc1-c1cc2ncc(F)c(-c3ccc(OC4CCOCC4)c(C#N)c3)c2o1 [Compound 297, 4-[7-[3-cyano-4-(oxan-4-yloxy)phenyl]-6-fluorofuro[3,2-b]pyridin-2-yl]-N-(2-hydroxyethyl)-3-methoxy-N-methylbenzamide] | 100 to 1000 | < 100 | < 100
COc1cc(C(=O)N(C)C)ccc1-c1cc2ncc(F)c(-c3ccc(OC4CCOCC4)c(C#N)c3)c2o1 [Compound 298, 4-[7-[3-cyano-4-(oxan-4-yloxy)phenyl]-6-fluorofuro[3,2-b]pyridin-2-yl]-3-methoxy-N,N-dimethylbenzamide] | 100 to 1000 | < 100 | < 100
